Source: patent publication US9234222B2, “Microbial strains producing sphingoid bases or derivatives thereof” (EVONIK DEGUSSA GMBH, priority 2004, dated 2016)
Bridge positions count the residues as written; N and C are the ends. Square brackets hold non-standard residues; d marks the D form. Peptide text beside a SMILES is read from it. * marks the point of attachment. Asp(3S-OH) = N[C@H](C(=O)O)[C@H](O)C(=O)O; Thr(4-Cl) = N[C@H](C(=O)O)[C@H](O)CCl; X1 = CCCCCCCCC[C@@H](O)CC(=O)*; dDab = NCC[C@@H](N)C(=O)O; Dab = NCC[C@H](N)C(=O)O; Dhb = C/C=C(\N)C(=O)O

Test system: Pichia ciferrii strains
Experiment: Minimal inhibitory concentration of SyringomycinE on YEPD agar plates
Format: cell-based
Details: 10 μg/ml in YEPD selective plates
Description: In order to isolate high sphinganine producing Pichia ciferrii strains the following procedure was followed. First, the natural sensitivity of Pichia ciferrii strains for the toxic compound SyringomycinE, produced by […] syringae (Gross D C, 1985, Regulation of syringomycin synthesis in Pseudomonas syringae pv. syringae and defined conditions for its production. J Appl Bacteriol. 58:167-174), was determined by adding different concentrations of SyringomycinE to agar plates. A stock solution of 3.5 mg SyringomycinE (obtained from J. Takemoto, Utah State University) was prepared by dissolving it in 1.0 ml 0.001 N HCl. The pH was kept below 7 for stability and stored at −20° C. The minimal inhibitory concentration (=MIC-value) for Pichia ciferrii strains was determined by using YEPD plates (per liter: Yeast Extract, 10 g; Pepton, 20 g; Glucose, 20 g; Agar, 20 g) containing various concentrations between 0.1 and 20 μg/ml syringomycinE. On each plate with the different concentrations of syringomycinE 100 μl of a freshly grown culture (OD600 nm=0.4) was plated and incubated at 30° C. for 5 days.
Depending on the strain no colonies appeared on plates with 2 to 10 μg/ml of SyringomycinE, meaning that the MIC value lies between 2 and 10 μg/ml. […]

With C/C=C1\NC(=O)[C@H](Cc2ccccc2)NC(=O)[C@H](CCCN=C(N)N)NC(=O)[C@@H](CCN)NC(=O)[C@H](CCN)NC(=O)[C@@H](CO)NC(=O)[C@@H](NC(=O)C[C@H](O)CCCCCCCCC)COC(=O)[C@H]([C@H](O)CCl)NC(=O)[C@H]([C@H](O)C(=O)O)NC1=O [SyringomycinE] (X1-S[dS][Dab][dDab]RF[Dhb][Asp(3S-OH)][Thr(4-Cl)]; ester 1-C) the “effect on standard P. ciferrii strains” value was “lethal”.
